Data: patent US12202844B2, “MAP4K1 inhibitors” (Blueprint Medicines Corporation, priority 2021, dated 2025)

Target: T1, MAP4K1 (HPK1) (Homo sapiens, UniProt Q92918)
T1 construct: purchased Invitrogen
Assay: Inhibition of MAP4K1 biochemical enzymatic activity (EZReader 2 electrophoretic mobility shift)
Conditions: HPK1 (Invitrogen), S6K2tide 1.5 μM, 120 min; ATP 26 μM or 1000 μM (not given)
Description: MAP4K1 (HPK1) and relevant off-target enzymatic activity was monitored using the Perkin Elmer electrophoretic mobility shift technology platform—the EZReader 2. […] Within the linear, steady-state phase of the kinase enzymatic reaction, the mixed pool of phosphorylated (product) and non-phosphorylated (substrate) peptides was passed through the microfluidic system of the PerkinElmer EZ Reader 2, under an applied electric potential difference. The presence of the phosphate group on the product peptide provided a difference in mass and charge between that of the substrate peptide, resulting in a separation of the substrate and product pools in the sample (Perrin et al. 2010). As the product and substrate peptide mixture passes the lasers within the instrument, these pools are detected (λex=488 nm, λem=568 nm) and resolved as separate peaks. The ratio between these peaks reflects the activity of the compound at that concentration, in that well, under those conditions.
Inhibitors were dissolved in 100% DMSO at a stock concentration of 10 mM. A 100×, 10-point, 4-fold serial dilution of each inhibitor was created in 100% DMSO either manually or on a Hamilton STAR liquid handler, starting at a relevant concentration, usually 1 mM. A volume of 0.130 μL of each concentration was transferred to the relevant wells of a 384-well plate (Greiner 781 201) in duplicate using a TTPLabtech Mosquito nano-litre dispenser. Using a Multidrop Combi, the remaining constituents of the kinase reaction were added to the 130 nL of dosed compound as follows (see table below for final reaction details):
Enzyme activity assays at the ^APPKM for ATP or 1 mM ATP: In each well of a 384-well plate, 0.1-15 nM of untreated enzyme was incubated in a total of 13 μL of buffer (100 mM HEPES pH 7.5, 0.015% Brij 35, 10 mM MgCl2, 1 mM DTT) with 1.5 μM fluorescent peptid and 20-1000 μM ATP, at 25° C., for 60-180 minutes in the presence or absence of a dosed concentration series of compound (1% DMSO final concentration). The kinase reactions were stopped by the addition of 70 μl of Stop buffer (100 mM HEPES pH 7.5, 0.015% Brij 35, 35 mM EDTA and 0.2% of Coating Reagent 3 (Caliper Lifesciences)). The plates were read on a Caliper EZReader 2 as described above.

T1 sequence (Q92918 whole entry): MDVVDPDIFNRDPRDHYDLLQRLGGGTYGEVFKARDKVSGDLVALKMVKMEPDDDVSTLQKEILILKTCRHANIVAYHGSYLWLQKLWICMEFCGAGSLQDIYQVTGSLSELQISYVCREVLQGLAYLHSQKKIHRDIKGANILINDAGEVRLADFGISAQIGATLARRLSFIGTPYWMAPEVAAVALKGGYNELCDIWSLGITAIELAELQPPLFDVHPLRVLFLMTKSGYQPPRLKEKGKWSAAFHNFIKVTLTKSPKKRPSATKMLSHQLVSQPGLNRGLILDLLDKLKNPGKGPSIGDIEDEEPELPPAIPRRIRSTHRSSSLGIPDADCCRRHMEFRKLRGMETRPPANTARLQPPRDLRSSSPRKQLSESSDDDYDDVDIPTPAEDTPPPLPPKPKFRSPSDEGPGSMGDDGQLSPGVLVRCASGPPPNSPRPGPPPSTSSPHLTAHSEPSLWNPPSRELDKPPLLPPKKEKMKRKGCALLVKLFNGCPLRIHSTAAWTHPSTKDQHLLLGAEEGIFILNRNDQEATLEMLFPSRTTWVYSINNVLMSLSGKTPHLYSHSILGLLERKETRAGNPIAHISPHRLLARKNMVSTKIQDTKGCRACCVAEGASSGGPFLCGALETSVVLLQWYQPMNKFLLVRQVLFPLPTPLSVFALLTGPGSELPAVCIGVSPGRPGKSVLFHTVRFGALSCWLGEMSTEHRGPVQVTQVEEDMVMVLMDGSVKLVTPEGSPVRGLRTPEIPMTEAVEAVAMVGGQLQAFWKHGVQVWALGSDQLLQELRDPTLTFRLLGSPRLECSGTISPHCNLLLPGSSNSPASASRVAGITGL

IC50	Structure (SMILES)
0.49 nM	COC[C@@](C)(N)c1cnc(OCCCS(C)(=O)=O)c2cnc(Nc3ccc4c(n3)[C@@H](C)C(C)(C)OC4=O)cc12 (stereo in doubt) [Compound 179]
0.19 nM	CC[C@@](C)(N)c1cnc(O[C@H](C)CC[S@+](C)[O-])c2cnc(Nc3ccc4c(n3)[C@@H](C)[C@H](C)OC4=O)cc12 (single isomer, unassigned) [Compound 167]
1.53 nM	C[C@@H]1COC(=O)c2ccc(Nc3cc4c(C(C)(C)N)cnc(O[C@H]5C[C@@H](S(=O)(=O)C6CC6)C5)c4cn3)nc21 (single isomer, unassigned) [Compound 25]
0.48 nM	C[C@@H]1OC(=O)c2ccc(Nc3cc4c(C(C)(C)N)cnc(O[C@@H]5CC[C@@H](S(C)(=O)=O)C5)c4cn3)nc2[C@H]1C (single isomer, unassigned) [Compound 35]
0.21 nM	C[C@H](C[C@@H](C)S(C)(=O)=O)Oc1ncc([C@@](C)(N)C2CC2)c2cc(Nc3ccc4c(n3)[C@@H](C)C(C)(C)OC4=O)ncc12 (single isomer, unassigned) [Compound 137]
0.17 nM	CC[C@@](C)(N)c1cnc(O[C@H]2C[C@@H](CS(C)(=O)=O)C2)c2cnc(Nc3ccc4c(n3)[C@@H](C)C(C)(C)OC4=O)cc12 [Compound 114]
0.12 nM	CC[C@@](C)(N)c1cnc(OCCCS(C)(=O)=O)c2cnc(Nc3ccc4c(n3)C3(CC3)[C@H](C)OC4=O)cc12 (single isomer, unassigned) [Compound 43]
0.14 nM	CC[C@@](C)(N)c1cnc(O[C@H]2C[C@H](CS(C)(=O)=O)C2)c2cnc(Nc3ccc4c(n3)[C@@H](C)C(C)(C)OC4=O)cc12 [Compound 113]
5.35 nM	C[C@@H]1OC(=O)c2ccc(Nc3cc4c(C(C)(C)N)cnc(O[C@@H](CCS(C)(=O)=O)C(F)(F)F)c4cn3)nc2[C@H]1C (single isomer, unassigned) [Compound 174]
0.3 nM	CC[C@@](C)(N)c1cnc(OCCCS(C)(=O)=O)c2cnc(Nc3ccc4c(n3)CC(C)(C)OC4=O)cc12 [Compound 23]
0.12 nM	CCS(=O)(=O)C[C@H]1C[C@H](Oc2ncc(C(C)(C)N)c3cc(Nc4ccc5c(n4)[C@@H](C)C(C)(C)OC5=O)ncc23)C1 (single isomer, unassigned) [Compound 111]
2.38 nM	C[C@@H]1OC(=O)c2ccc(Nc3cc4c(C(C)(C)N)cnc(O[C@@H](C)C[C@@H]5CCCS5(=O)=O)c4cn3)nc2[C@H]1C (single isomer, unassigned) [Compound 156]
1.94 nM	CCS(=O)(=O)C[C@H](C)[C@@H](C)Oc1ncc(C(C)(C)N)c2cc(Nc3ccc4c(n3)[C@@H](C)C(C)(C)OC4=O)ncc12 (single isomer, unassigned) [Compound 131]
0.82 nM	C[C@H](CCS(C)(=O)=O)Oc1ncc(C(C)(C)N)c2cc(Nc3ccc4c(n3)[C@@H](C)C(C)(C)OC4=O)ncc12 (single isomer, unassigned) [Compound 54]
0.18 nM	CCC[C@@](C)(N)c1cnc(O[C@H](C)C[C@@H](C)S(C)(=O)=O)c2cnc(Nc3ccc4c(n3)[C@@H](C)[C@H](C)OC4=O)cc12 (single isomer, unassigned) [Compound 125]
0.92 nM	CC[C@@H](CCS(C)(=O)=O)Oc1ncc([C@](C)(N)CC)c2cc(Nc3ccc4c(n3)[C@@H](C)[C@H](C)OC4=O)ncc12 (single isomer, unassigned) [Compound 83]
23.3 nM	C[C@@H]1OC(=O)c2ccc(Nc3cc4c(C(C)(C)N)cnc(O[C@H](CCS(C)(=O)=O)C(F)(F)F)c4cn3)nc2[C@H]1C (single isomer, unassigned) [Compound 175]
0.92 nM	CC[C@@](C)(N)c1cnc(O[C@H]2C[C@@H](S(C)(=O)=O)C2)c2cnc(Nc3ccc4c(n3)[C@H](C)COC4=O)cc12 (single isomer, unassigned) [Compound 9]
0.24 nM	CC[C@@](C)(N)c1cnc(O[C@H]2C[C@@H](CS(C)(=O)=O)C2)c2cnc(Nc3ccc4c(n3)[C@@H](C)[C@H](C)OC4=O)cc12 [Compound 73]
1.57 nM	C[C@@H]1OC(=O)c2ccc(Nc3cc4c(C(C)(C)N)cnc(O[C@@H](C)C[C@@H]5CCCS5(=O)=O)c4cn3)nc2[C@H]1C (single isomer, unassigned) [Compound 157]
0.2 nM	CC[C@@](C)(N)c1cnc(O[C@H](C)CC[S@@+](C)[O-])c2cnc(Nc3ccc4c(n3)[C@@H](C)[C@H](C)OC4=O)cc12 (single isomer, unassigned) [Compound 166]

IC50	Structure (SMILES)
0.31 nM	CC[C@@](C)(N)c1cnc(O[C@H](C)CCS(C)(=O)=O)c2cnc(Nc3ccc4c(n3)CC(C)(C)OC4=O)cc12 [Compound 49]
3.03 nM	CC[C@@](C)(N)c1cnc(O[C@H](C)C[C@@H](C)[S@@](C)(=N)=O)c2cnc(Nc3ccc4c(n3)C3(CC3)[C@@H](C)OC4=O)cc12 (single isomer, unassigned) [Compound 180]
0.74 nM	CC[C@@H](CCS(C)(=O)=O)Oc1ncc([C@](C)(N)CC)c2cc(Nc3ccc4c(n3)[C@@H](C)[C@H](C)OC4=O)ncc12 (single isomer, unassigned) [Compound 84]
0.68 nM	C[C@@H]1OC(=O)c2ccc(Nc3cc4c(C(C)(C)N)cnc(O[C@@H]5CC[C@H](S(C)(=O)=O)C5)c4cn3)nc2[C@H]1C (single isomer, unassigned) [Compound 41]
0.96 nM	CC[C@@](C)(N)c1cnc(O[C@H](C)CC(C)(C)[S@@](C)(=N)=O)c2cnc(Nc3ccc4c(n3)C(C)(C)[C@@H](C)OC4=O)cc12 (single isomer, unassigned) [Compound 188]
0.15 nM	C[C@@H]1OC(=O)c2ccc(Nc3cc4c(C(C)(C)N)cnc(O[C@H]5C[C@@H](S(=O)(=O)C6CC6)C5)c4cn3)nc2[C@H]1C [Compound 61]
1.05 nM	CC[C@@](C)(N)c1cnc(O[C@H](C)CC(C)(C)[S@@](C)(=N)=O)c2cnc(Nc3ccc4c(n3)C(C)(C)[C@@H](C)OC4=O)cc12 (single isomer, unassigned) [Compound 189]
0.15 nM	CC(C)(N)c1cnc(O[C@H]2C[C@@H](S(C)(=O)=O)C2)c2cnc(Nc3ccc4c(n3)C3(CC3)C(C)(C)OC4=O)cc12 [Compound 59]
2.11 nM	CC[C@@](C)(N)c1cnc(O[C@@H](C)CCS(C)(=O)=O)c2cnc(Nc3ccc4c(n3)C(C)(C)[C@H](C)OC4=O)cc12 (single isomer, unassigned) [Compound 97]
0.42 nM	C[C@H](C[C@H]1CCCS1(=O)=O)Oc1ncc(C(C)(C)N)c2cc(Nc3ccc4c(n3)[C@@H](C)C(C)(C)OC4=O)ncc12 (single isomer, unassigned) [Compound 159]
1.85 nM	CC(C)(N)c1cnc(O[C@H]2C[C@@H](S(C)(=O)=O)C2)c2cnc(Nc3ccc4c(n3)C(C)(C)OC4=O)cc12 [Compound 4]
1.15 nM	COC[C@@](C)(N)c1cnc(O[C@H](C)C[C@@H](C)S(C)(=O)=O)c2cnc(Nc3ccc4c(n3)C3(CC3)[C@H](C)OC4=O)cc12 (single isomer, unassigned) [Compound 165]
0.2 nM	CCC[C@@](C)(N)c1cnc(O[C@H](C)C[C@@H](C)S(C)(=O)=O)c2cnc(Nc3ccc4c(n3)[C@@H](C)C(C)(C)OC4=O)cc12 (single isomer, unassigned) [Compound 142]
0.56 nM	C[C@@H]1OC(=O)c2ccc(Nc3cc4c(C(C)(C)N)cnc(O[C@@H]5CC[C@@H](S(C)(=O)=O)C5)c4cn3)nc2[C@H]1C (single isomer, unassigned) [Compound 34]
1.41 nM	CC[C@@](C)(N)c1cnc(O[C@@H](C)CCS(C)(=O)=O)c2cnc(Nc3ccc4c(n3)C3(CC3)C(C)(C)OC4=O)cc12 [Compound 146]
0.19 nM	CC[C@@](C)(N)c1cnc(OCCCS(C)(=O)=O)c2cnc(Nc3ccc4c(n3)C3(CC3)C(C)(C)OC4=O)cc12 [Compound 44]
0.12 nM	C[C@@H]1c2nc(Nc3cc4c(C(C)(C)N)cnc(OC5(C)CS(=O)(=O)C5)c4cn3)ccc2C(=O)OC1(C)C [Compound 10]
0.09 nM	CC(C)S(=O)(=O)[C@H]1C[C@@H](Oc2ncc(C(C)(C)N)c3cc(Nc4ccc5c(n4)[C@@H](C)C(C)(C)OC5=O)ncc23)C1 [Compound 116]
0.45 nM	COC[C@@](C)(N)c1cnc(OCCCS(C)(=O)=O)c2cnc(Nc3ccc4c(n3)[C@@H](C)C(C)(C)OC4=O)cc12 [Compound 135]
0.22 nM	COC[C@@](C)(N)c1cnc(O[C@H]2C[C@@H](S(C)(=O)=O)C2)c2cnc(Nc3ccc4c(n3)C3(CC3)[C@H](C)OC4=O)cc12 (single isomer, unassigned) [Compound 163]
0.13 nM	CC[C@@](C)(N)c1cnc(OCCCS(C)(=O)=O)c2cnc(Nc3ccc4c(n3)[C@@H](C)[C@H](C)OC4=O)cc12 [Compound 20]
